For 26 molecules, Ki results are on record in BindingDB's records for doi:10.1074/jbc.M004512200 (Schering-Plough Research Institute, 2000).

SMILES strings stand for the structures. Values joined by “and” are separate entries in the source; they are usually repeats but may differ in a detail not shown here. Identical values can stand only once.

Experiment [1] addresses Leukotriene B4 receptor 1 (Homo sapiens, UniProt Q15722).
Experiment [2] addresses T1, Leukotriene B4 receptor 2 (Homo sapiens, UniProt Q9NPC1).
T1 sequence (Q9NPC1 whole entry): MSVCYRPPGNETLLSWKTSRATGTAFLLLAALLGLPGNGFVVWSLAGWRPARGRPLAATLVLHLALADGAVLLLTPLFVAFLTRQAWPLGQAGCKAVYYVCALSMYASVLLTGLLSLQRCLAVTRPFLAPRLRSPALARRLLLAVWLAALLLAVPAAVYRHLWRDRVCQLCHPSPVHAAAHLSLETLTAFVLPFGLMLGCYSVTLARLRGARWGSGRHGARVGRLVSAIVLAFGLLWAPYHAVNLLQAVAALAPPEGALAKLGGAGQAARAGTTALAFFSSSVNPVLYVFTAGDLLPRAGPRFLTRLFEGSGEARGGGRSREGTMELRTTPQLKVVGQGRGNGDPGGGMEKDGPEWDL

Leukotriene B4 receptor 1, sequence (Q15722 whole entry): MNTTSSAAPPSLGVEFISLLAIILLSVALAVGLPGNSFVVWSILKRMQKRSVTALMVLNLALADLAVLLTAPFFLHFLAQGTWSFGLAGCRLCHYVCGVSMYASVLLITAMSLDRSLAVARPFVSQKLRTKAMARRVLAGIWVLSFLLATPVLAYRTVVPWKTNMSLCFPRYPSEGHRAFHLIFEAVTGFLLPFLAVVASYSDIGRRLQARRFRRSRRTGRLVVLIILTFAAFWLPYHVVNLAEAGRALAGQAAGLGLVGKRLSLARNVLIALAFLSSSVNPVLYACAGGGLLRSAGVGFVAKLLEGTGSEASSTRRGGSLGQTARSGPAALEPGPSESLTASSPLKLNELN

For `CCCCC[C@@H](O)/C=C/C=C\C/C=C\C/C=C\CCCC(=O)O`, the inhibition constant (Ki) (in general, a dissociation constant, usually derived from enzyme kinetics or from competition with a known ligand) in experiment [1] is more than 18 µM; in experiment [2], 0.173 µM.

In the case of `CCCCC/C=C\C\C=C/C=C/C=C/[C@@H](SC[C@H](N)C(=O)NCC(=O)O)[C@@H](O)CCCC(=O)O` [5S-hydroxy-6R-(S-cysteinylglycinyl)-7E,9E,11E,14Z-eicosatetraenoic acid], the Ki in experiment [1] is 4 µM; in experiment [2], more than 10 µM.

On to `CCCCC/C=C\C[C@H](O)/C=C/c1cccc(C[C@H](O)CCCCO)n1` [(5R)-6-[6-[(1E,3S,5Z)-3-hydroxyundeca-1,5-dienyl]pyridin-2-yl]hexane-1,5-diol], for which the inhibitory constant (Ki) in experiment [1] is 0.025 µM; in experiment [2], 5.43 µM. The like results for `CCCCC/C=C\C\C=C/C=C/C=C/[C@@H](SC[C@H](N)C(=O)O)[C@@H](O)CCCC(=O)O` [(5S-(5R*,6S*(S*),7E,9E,11Z,14Z))-6-((2-Amino-2-carboxyethyl)thio)-5-hydroxy-7,9,11,14-eicosatetraenoic acid] were, in that order, 2.37 µM and 6 µM. For `CCCCCC=CCC=CC=CC=CC(SCC(NC(=O)CCC(N)C(=O)O)C(=O)NCC(=O)O)C(O)CCCC(=O)O` (centres undefined) [CAS_5283121], the Ki was more than 1.9 µM in experiment [1] and more than 9 µM in experiment [2]. The like results for `O=C(O)CCCC=CCC=CCC=CCC=CCCCCCO` [CAS_5283157] were, in that order, more than 10 µM and more than 1 µM.

Take `CCCCC/C=C\C/C=C\CC=CC=CC(=O)CCCC(=O)O` [ETE-5-Oxo]: the Ki in experiment [1] and in experiment [2] was more than 1 µM each time. In the case of `CCCCC/C=C\C/C=C\C/C=C\C=C\C(O)CCCC(=O)O` [HETE-5(S)], the inhibition constant (Ki) in experiment [1] was 1 µM and > 10 µM; in experiment [2], 1 µM and 3 µM.

With `CCCCCCCCC=CC=CC=CC1OC1CCCC(=O)OC` (centres undefined) [LTA3-ME], the Ki in experiment [1] is 5 µM; in experiment [2], more than 10 µM.

Take `CC/C=C/CC=CCC=CC=CC=CC1OC1CCCC(=O)OC` (centres undefined) [LTA5-ME]: in experiment [1], the Ki is more than 10 µM. Consider `CCCCC/C=C\C[C@@H](O)/C=C/C=C/C=C\[C@@H](O)CCCC(=O)NCCCN` [LTB4-3-aminopropylamide], for which the inhibitory constant (Ki) turned out to be 0.0051 µM in experiment [1] and 1.23 µM in experiment [2].

As for `O=C(O)CCC[C@H](O)\C=C/C=C/C=C/[C@H](O)C/C=C\CCCCCO` [LTB4-20-hydroxy], the inhibition constant Ki in experiment [1] was 0.00054 µM; in experiment [2] it was 0.041 µM. On the same counts, the results for `CCCCCCCCC=CC=CC=CC(SCC(NC(=O)CCC(N)C(=O)O)C(=O)NCC(=O)O)C(O)CCCC(=O)O` (centres undefined) [LTC3] are more than 14 µM and more than 4 µM.

Turning to `CC/C=C/C=C/CCC=CC=CC=CC(SCC(NC(=O)CCC(N)C(=O)O)C(=O)NCC(=O)O)C(O)CCCC(=O)O` (centres undefined) [LTC5], the inhibition constant (Ki) in experiment [1] was more than 10 µM; in experiment [2], 3 µM.

`CCCCCCCCC=CC=CC=CC(SCC(N)C(=O)NCC(=O)O)C(O)CCCC(=O)O` (centres undefined) [LTD3]: the inhibition constant Ki was more than 10 µM in experiment [1] and 1 µM in experiment [2].

As to `CC/C=C/CC=CCC=CC=CC=CC(SCC(N)C(=O)NCC(=O)O)C(O)CCCC(=O)O` (centres undefined) [LTD5], the Ki in experiment [1] is more than 10 µM. Take `CCCCCCCCC=CC=CC=CC(SCC(N)C(=O)O)C(O)CCCC(=O)O` (centres undefined) [LTE3]: the Ki in experiment [1] is more than 10 µM; in experiment [2] it was 4 µM.

For `CCCCCC=CCC=CCC=CCC#CCCCC(=O)O` [NSC_1777], the inhibition constant Ki in experiment [2] is 1 µM. For `CCCCCC=CCC=CC=CC=CC1OC1CCCC(=O)OC` (centres undefined) [NSC_126534], the inhibition constant Ki in experiment [1] and in experiment [2] was more than 10 µM throughout. In the case of `CCCCCC(O)C=CC=CC=CC=CC(O)C(O)CCCC(=O)O` (centres undefined) [NSC_5280914], the inhibition constant (Ki) in experiment [1] came to 1.44 µM; in experiment [2], 1.4 µM. For `CCCCCC=CCC=CC=CC=CC(SCC(NC(=O)CCC(N)C(=O)O)C(=O)O)C(O)CCCC(=O)O` (centres undefined) [NSC_5283124], the inhibition constant Ki in experiment [1] amounted to 5.7 µM; in experiment [2], 6 µM. On the same counts, the results for `CCC=CCC=CCC(O)C=CC=CC=CC(O)CCCC(=O)O` (centres undefined) [NSC_5283125] are 0.0037 µM and 0.0094 µM. The like results for `CCCCCCC=CC(=O)C=CC=CCC=CCCCC(=O)O` [NSC_5283162] were, in that order, more than 1 µM and 0.155 µM. On the same counts, the results for `CCCCCC=CCC=CC=CC(O)CC=CCCCC(=O)O` (centres undefined) [NSC_5283163] are more than 30 µM and more than 1 µM. As for `CC(C)(O)c1ccccc1CCC(S)c1cccc(C=Cc2ccc3ccc(Cl)cc3n2)c1` (centres undefined) [NSC_5311297], the Ki in experiment [1] and in experiment [2] was more than 10 µM throughout.

Take `COc1cc(C(=O)NS(=O)(=O)c2ccccc2C)ccc1Cc1cn(C)c2ccc(NC(=O)OC3CCCC3)cc12` [cyclopentyl 3-(2-methoxy-4-((o-tolylsulfonyl)carbamoyl)benzyl)-1-methylindole-5-carbamate]: the inhibitory constant (Ki) is 7.12 µM in experiment [1] and more than 10 µM in experiment [2].
